The test system of data set [1] is DRG explants, neuronal and non-neuronal cell migration. In words: Explant outgrowth assay. The class given is cell-based, chick. How it is done:
Primary Explant Cultures. Dorsal root ganglia (DRGs) were obtained from E8-E9 chick embryos. The dissection was carried out in CMF-HBSS. The spinal cord was exposed and DRGs were removed and cleaned from surrounding connective tissue. DRGs were plated in DMEM/F12, 10% fetal calf serum containing 50 ng/ml nerve growth factor (NGF). The DRGs were seeded on laminin (LN, Gibco Laboratories) or poly-L-lysine (PLL, Sigma) coated dishes.
The relative outgrowth, compared to outgrowth of untreated controls, was rated as follows: 1: 0-19% of control; 2: 20-39% of control; 3: 40-59% of control; 4: 60-79% of control; 5: 80-100% of control.
The effect of heparin and dextran sulfate on cell migration from explant cultures of chick DRGs was tested. DRGs were plated in culture dishes precoated with a substratum of either PLL or LN and grown in culture medium containing different concentrations of heparin, dextran sulfate or dextran solutions. In the absence of a test compound, within 24-48 hours a halo of neuritic outgrowth and migrating non-neuronal cells, i.e., fibroblasts and Schwann cells, was evident around the ganglia (FIG. 6A). The size of the cellular halo migrating from the DRG explant was reduced when the explant was grown in the presence of 0.4 mg/ml heparin (FIG. 6B). […] In contrast, 0.4 mg/ml dextran had no effect (FIG. 6D). The size of the cellular halo emanating from DRGs grown in the presence of test compounds was evaluated relative to untreated control and rated as described in Section 8.1.3, supra (Table 9).

In data set [2] the test system is epidural fibrosis at laminectomy site, Lewis inbred rats. In words: Epidural fibrosis after lumbar laminectomy in rats, gross evaluation. It counts as in vivo, rat. Further details: TOTAL SCORE / TOTAL SCORE 2 WEEKS: scale not given here. As to conditions: for inhibition of scar formation (in words): versus buffer control; for TOTAL SCORE 2 WEEKS: Table 4, 2 weeks post-implantation; for Bone Growth / Deep Scar / Gelfoam Appearance: score 0-3 per Table 1; for Bone Growth / Deep Scar / Gelfoam Appearance / Superficial Scar: agent-soaked GELFOAM in laminectomy site; for Superficial Scar: score 1-3 per Table 1. The procedure: Epidural fibrosis was investigated after lumbar laminectomy in rats. In this model, a laminectomy was performed at the lumbar 3 and 5 vertebrae and then the test agent was applied to the laminectomy site. Subsequently, the laminectomy sites were examined for fibrosis by gross dissection or by histological analysis.
Laminectomies (described below) were performed at lumbar vertebrae L3 and L5 to provide auto-controls within each animal. Segments of GELFOAM® (Upjohn) soaked with experimental or control solutions were inserted into the laminectomy site. The soared GELFOAM® fragments were prepared and coded 24 hours beforehand. The GELFOAM® segments were soaked in solutions of dextran sulfate in calcium/magnesium-free phosphate buffered saline (CMF-PBS), dextran in CMF-PBS, or CMF-PBS alone. In some laminectomy sites, the GELFOAM® fragments were omitted, in order to serve as sham operations. Subsequently, the evaluation by gross dissection was done without knowledge of which solutions had been placed in which laminectomy site. Thus, the experiments were double-blind.
Lewis inbred rats were anesthetized with 4% chloral hydrate (34 mg/100 g body weight). The dorsal skin was incised and the paraspinal muscles were separated from the spinous processes of lumbar vertebrae L2 through L6. The spinous processes of L3 and L5 were removed with a rongeurs; then the vertebral lamina was removed with a micro-rongeurs creating a rectangular laminectomy defect 4×2 mm in size. After bleeding was stopped, a GELFOAM® segment was placed into the laminectomy site according to a randomized protocol. The overlying paraspinal muscles were closed over the site by suturing the superficial fascia together with resorbable 6-0 PDS II (Ethicon). The skin incision was closed with wound clips.
The animals were kept for two weeks prior to gross evaluation. At that time, the rats were anesthetized with 4% chloral hydrate and the wound was reopened by incising, the skin and separating the paraspinal muscles. The quality and quantity of scar tissue above the laminectomy site, the appearance of the GELFOAM® and the extent of new bone growth was evaluated by visual and tactile observation during sharp dissection. After the gross evaluation was complete, the rats were euthanized by anesthesia overdose.
All gross evaluations were made prior to breaking the treatment code, but the observations have been tabulated and presented below according to treatment group.

The mark [3] stands for this setting: 0.5 μg/ml in culture medium, PLL substratum.
Where [4] appears, read: 1 μg/ml in culture medium, PLL substratum.
[5] abbreviates: 1.25 μg/ml in culture medium, LN substratum.
The mark [6] stands for this setting: 1.25 μg/ml in culture medium, PLL substratum.
The mark [7] stands for this setting: 2 μg/ml in culture medium, PLL substratum.
The mark [8] stands for this setting: 10 μg/ml in culture medium, LN substratum.
The mark [9] stands for this setting: 10 μg/ml in culture medium, PLL substratum.
The mark [10] stands for this setting: 50 μg/ml in culture medium, LN substratum.
Where [11] appears, read: 50 μg/ml in culture medium, PLL substratum.
The mark [12] stands for this setting: 200 μg/ml in culture medium, LN substratum.
The mark [13] stands for this setting: 200 μg/ml in culture medium, PLL substratum.
Setting [14] is: 400 μg/ml in culture medium, LN substratum.
Where [15] appears, read: 400 μg/ml in culture medium, PLL substratum.
The mark [16] stands for this setting: 2 μg/ml in culture medium, LN substratum.
Setting [17] is: Table 2, sum of four criteria, lower = greater inhibition of scar formation, two weeks.

With Heparin, the “Cellular Migration from DRG Explants, rating relative to untreated control” value in data set [1] (setting [3]) was 5 (5 = 80-100% of control); in data set [1] (setting [4]) it was 4 (4 = 60-79%); in data set [1] (setting [5]), 5 (5 = 80-100% of control); in data set [1] (setting [6]) it was 2 (2 = 20-39%); in data set [1] (setting [7]), 2 (2 = 20-39%); in data set [1] (setting [8]), 5 (5 = 80-100% of control). The “Cellular Migration from DRG Explants, rating relative to untreated control” value in data set [1] (setting [9]) is 2 (2 = 20-39%); in data set [1] (setting [10]), 5 (5 = 80-100% of control); in data set [1] (setting [11]), 2 (2 = 20-39%); in data set [1] (setting [12]) it was 5 (5 = 80-100% of control); in data set [1] (setting [13]), 2 (2 = 20-39%); in data set [1] (setting [14]), 5 (5 = 80-100% of control). The “Cellular Migration from DRG Explants, rating relative to untreated control” value in data set [1] (setting [15]) is given as 1 (1 = 0-19%). The “inhibition of scar formation (in words)” value in data set [2] (20 mg/ml) was “marginal improvement”. Moreover, in data set [2] (Table 5, agent 20 mg/ml), the “TOTAL SCORE” value stood at 7.3 ± 2.5. Further, in data set [2] (rat, in vivo), the “hemorrhage and hematoma formation at the laminectomy site” value is “caused hemorrhage and hematoma formation”.
As to dextran [reference compound], the “Cellular Migration from DRG Explants, rating relative to untreated control” value in data set [1] (setting [16]), in data set [1] (setting [8]), in data set [1] (setting [10]), in data set [1] (setting [11]), in data set [1] (setting [12]) and in data set [1] (setting [13]) was 5 (5 = 80-100% of control) in each case. The “Cellular Migration from DRG Explants, rating relative to untreated control” value in data set [1] (setting [14]) and in data set [1] (setting [15]) was 5 (5 = 80-100% of control) throughout. Also, the “TOTAL SCORE” value in data set [2] (setting [17]) worked out at 8.8 ± 2.4; in data set [2] (Table 5, agent 20 mg/ml), 8.8 ± 2.4. Also, the “TOTAL SCORE 2 WEEKS” value in data set [2] (20 mg/ml) is 9.5 ± 2.4. In addition, in data set [2] (two weeks), the “Bone Growth” value is on record as 1.6 ± 0.9. The “Deep Scar” value in data set [2] (two weeks) worked out at 2.3 ± 0.9. In data set [2] (two weeks), the “Gelfoam Appearance” value was 2.2 ± 0.8. In addition, the “Superficial Scar” value in data set [2] (two weeks) was 2.7 ± 0.5.
For dextran sulfate, the “Cellular Migration from DRG Explants, rating relative to untreated control” value was 5 (5 = 80-100% of control) in data set [1] (setting [3]); 3 (3 = 40-59%) in data set [1] (setting [4]); 5 (5 = 80-100% of control) in data set [1] (setting [5]); 2 (2 = 20-39%) in data set [1] (setting [6]); 3 (3 = 40-59%) in data set [1] (setting [16]); 1 (1 = 0-19%) in data set [1] (setting [7]). For the same substance, the “Cellular Migration from DRG Explants, rating relative to untreated control” value in data set [1] (setting [8]), in data set [1] (setting [9]), in data set [1] (setting [10]), in data set [1] (setting [11]), in data set [1] (setting [12]) and in data set [1] (setting [13]) was 1 (1 = 0-19%) each time. The “Cellular Migration from DRG Explants, rating relative to untreated control” value in data set [1] (setting [14]) and in data set [1] (setting [15]) was 1 (1 = 0-19%) throughout. Also, the “inhibition of scar formation (in words)” value in data set [2] (20 mg/ml) is on record as “potent inhibition”. The “TOTAL SCORE” value in data set [2] (setting [17]) was determined as 1.7 ± 0.9; in data set [2] (Table 3 dose response, 0.2 mg/ml), 7.8 ± 1.9; in data set [2] (Table 3 dose response, 2 mg/ml) it was 3.0 ± 2.3; in data set [2] (Table 3 dose response, 20 mg/ml), 1.3 ± 0.5; in data set [2] (Table 5, agent 20 mg/ml) it was 1.7 ± 0.9. Besides, the “TOTAL SCORE 2 WEEKS” value in data set [2] (20 mg/ml) is on record as 1.2 ± 0.5. For the same substance, the “hemorrhage and hematoma formation at the laminectomy site” value in data set [2] (rats, applied at laminectomy site) is “not seen”. For the same substance, the “Bone Growth” value in data set [2] (two weeks) turned out to be 0.1 ± 0.3. Moreover, the “Deep Scar” value in data set [2] (two weeks) was found to be 0.3 ± 0.5. The “Gelfoam Appearance” value in data set [2] (two weeks) was determined as 0.1 ± 0.3. In addition, the “Superficial Scar” value in data set [2] (two weeks) was 1.2 ± 0.4.

These data come from patent publication US6756362B2, “Methods and compositions based on inhibition of cell invasion and fibrosis by anionic polymers” (priority 1991, dated 2004).
